# Data as given in US9951064B2, “Azaindazole compounds as inhibitors of T790M containing EGFR mutants” (Genentech, Inc., priority 2013, dated 2018).
# Key:
# [1] = target: T1, EGFR T790M L858R (Homo sapiens, UniProt P00533, L858R/T790M); experiment: EGFR T790M L858R biochemical assay (Caliper mobility shift); settings: 5 μM ATP; apparent Ki (Morrison fit) converted by Cheng-Prusoff, Km of ATP 1.3 μM
# T1 construct: purchased Life Technologies PV4879
# Summary of the method: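 Reactions run 30 minutes at room temperature (22 °C), stopped with 80 mM EDTA. Phosphorylated product and substrate separated electrophoretically and quantified by Caliper mobility shift.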
# [2] = target: T2, EGFR del746-750 T790M (Homo sapiens, UniProt P00533, DEL746-750/T790M); experiment: EGFR del746-750 T790M biochemical assay (Caliper mobility shift); settings: 5 μM ATP; apparent Ki (Morrison fit) converted by Cheng-Prusoff, Km of ATP 2.1 μM; read-out: EGFR(T790M/d746-750) Ki
# T2 construct: purchased Carna Biosciences 08-528
# T2 sequence (P00533 with tags, fused parts or gaps DEL746-750/T790M limits assumed): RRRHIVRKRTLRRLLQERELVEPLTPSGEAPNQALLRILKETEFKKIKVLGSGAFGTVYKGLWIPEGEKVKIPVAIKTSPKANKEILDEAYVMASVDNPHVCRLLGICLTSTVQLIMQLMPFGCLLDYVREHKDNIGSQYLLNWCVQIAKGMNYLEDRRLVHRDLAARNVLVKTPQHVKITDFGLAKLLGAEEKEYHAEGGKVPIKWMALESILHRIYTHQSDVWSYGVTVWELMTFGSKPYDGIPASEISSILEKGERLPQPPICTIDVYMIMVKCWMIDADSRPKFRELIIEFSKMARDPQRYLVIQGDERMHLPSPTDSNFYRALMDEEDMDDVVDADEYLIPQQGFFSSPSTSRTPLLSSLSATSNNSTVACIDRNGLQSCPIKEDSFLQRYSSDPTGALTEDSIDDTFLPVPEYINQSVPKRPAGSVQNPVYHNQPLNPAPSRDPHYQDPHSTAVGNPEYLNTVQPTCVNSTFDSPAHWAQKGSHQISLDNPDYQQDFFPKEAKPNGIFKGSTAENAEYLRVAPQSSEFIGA
# Method: The exemplified compounds described herein were tested according to the assay below. The enzyme data reported in Tables 4-5 is generally a representative of multiple experiments.
# Reactions proceed for 30 minutes at room temperature (22° C.) and are terminated with 80 mM 2,2′,2″,2″′-(ethane-1,2-diyldinitrilo)tetraacetic acid (EDTA). Product is detected using the Caliper mobility shift detection method where product and substrate are electrophoretically separated and measured.
# [3] = target: T3, phosphor-EGFR in H1975(L585R/T790M) mutant EGFR expressing cells (Homo sapiens, UniProt P00533, L858R/T790M); experiment: H1975 pEGFR MSD cellular assay; format: cell-based; settings: NCI-H1975 cells, serum starved, 1 hour compound incubation, pEGFR Tyr1068 MSD; read-out: HI975 pEGFR EC50
# T3 construct: host or cells: NCI-H1975
# T3 sequence (P00533 25-1210 T790M/L858R): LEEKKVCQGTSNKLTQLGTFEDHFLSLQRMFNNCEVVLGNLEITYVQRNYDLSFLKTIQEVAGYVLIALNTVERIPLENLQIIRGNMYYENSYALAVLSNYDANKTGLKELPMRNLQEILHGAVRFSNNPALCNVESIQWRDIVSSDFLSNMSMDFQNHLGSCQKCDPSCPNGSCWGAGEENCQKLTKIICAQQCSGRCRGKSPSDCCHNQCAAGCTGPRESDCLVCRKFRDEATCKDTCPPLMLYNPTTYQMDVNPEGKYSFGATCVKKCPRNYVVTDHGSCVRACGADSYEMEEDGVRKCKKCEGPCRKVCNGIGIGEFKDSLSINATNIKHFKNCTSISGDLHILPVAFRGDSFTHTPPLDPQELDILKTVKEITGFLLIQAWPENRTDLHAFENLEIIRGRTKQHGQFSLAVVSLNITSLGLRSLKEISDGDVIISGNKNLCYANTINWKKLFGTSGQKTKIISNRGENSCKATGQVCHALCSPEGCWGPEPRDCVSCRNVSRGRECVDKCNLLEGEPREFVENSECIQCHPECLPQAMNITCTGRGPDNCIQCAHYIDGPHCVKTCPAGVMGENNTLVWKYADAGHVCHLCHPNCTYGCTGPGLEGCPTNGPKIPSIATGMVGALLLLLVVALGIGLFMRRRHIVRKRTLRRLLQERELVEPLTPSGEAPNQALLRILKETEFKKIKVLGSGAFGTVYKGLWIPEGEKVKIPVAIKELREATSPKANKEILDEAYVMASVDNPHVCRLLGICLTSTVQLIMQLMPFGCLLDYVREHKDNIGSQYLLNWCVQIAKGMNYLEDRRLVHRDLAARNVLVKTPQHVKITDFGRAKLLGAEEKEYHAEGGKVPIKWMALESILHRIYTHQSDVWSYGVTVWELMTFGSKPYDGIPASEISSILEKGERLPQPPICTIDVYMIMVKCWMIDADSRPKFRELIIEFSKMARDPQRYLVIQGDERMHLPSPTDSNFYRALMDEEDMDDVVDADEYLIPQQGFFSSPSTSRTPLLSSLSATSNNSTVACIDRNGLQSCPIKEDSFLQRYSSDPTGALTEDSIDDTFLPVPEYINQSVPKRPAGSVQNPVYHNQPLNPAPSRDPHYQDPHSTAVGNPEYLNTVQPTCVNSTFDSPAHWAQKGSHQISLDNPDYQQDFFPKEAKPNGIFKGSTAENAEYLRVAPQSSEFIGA
# Summary of the method: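 NCI-H1975 cells, 30,000/well, serum-starved overnight, then treated 1 hour at 37° C with serially diluted compounds in serum-free medium (0.5% DMSO). Lysates captured on anti-phospho-EGFR plates overnight at 4° C, detected with SULFO-TAG anti-total EGFR by electrochemiluminescence. Inhibition vs untreated controls; EC50 from 4-parameter logistic fit.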
# [4] = system: H1975 (EGFR T790M/L858R) cell proliferation; experiment: H1975 proliferation assay (Cell Titer-Glo); format: cell-based; settings: Homo sapiens, NCI-H1975, 72 h, NCI-H1975 cells, 72 hour incubation, read-out: H1975 antiproliferative EC50
# Method: H1975 Proliferation Assays
# All cell culture reagents were purchased from Invitrogen/Gibco. Cells are cultured at 37° C. at 5% CO2 and split as recommended by ATCC.
# T1 sequence (P00533 25-1210 T790M/L858R): as above
Ki [1],Ki [2],EC50 [3],EC50 [4],Compound
6.4 nM,7.1 nM,265 nM,1470 nM,"CCC(C)n1nc(N2CC[C@@H](O)C2)c2cnc(Nc3ccnc(N4CCC(CC#N)(OC)CC4)n3)cc21 (mixture of isomers) [Example 81, 2-(1-(4-(1-sec-Butyl-3-((R)-3-hydroxypyrrolidin-1-yl)-1H-pyrazolo[4,3-c]pyridin-6-ylamino)pyrimidin-2-yl)-4-methoxypiperidin-4-yl)acetonitrile]"
1 nM,1.8 nM,39.5 nM,256 nM,"CCC(C)n1nc(N2CCNC2=O)c2cnc(Nc3ccnc(N4CC[C@H](OC)[C@H](F)C4)n3)cc21 (mixture of isomers) [Example 98, 1-{1-(sec-Butyl)-6-[2-((3R,4S)-3-fluoro-4-methoxypiperidin-1-yl)pyrimidin-4-ylamino]-1H-pyrazolo[4,3-c]pyridin-3-yl}imidazolidin-2-one]"
3.3 nM,12.1 nM,3980 nM,> 10000 nM,"CCC(C)n1nc(N2C[C@@H](CO)NC2=O)c2cnc(Nc3ccnc(N4CCC(C)(O)CC4)n3)cc21 (mixture of isomers) [Example 176, (4S)-1-(1-sec-Butyl-6-(2-(4-hydroxy-4-methylpiperidin-1-yl)pyrimidin-4-ylamino)-1H-pyrazolo[4,3-c]pyridin-3-yl)-4-(hydroxymethyl)imidazolidin-2-one]"
1.2 nM,3 nM,36.1 nM,390 nM,"CC(C)n1nc(N2CC3(COC3)C2)c2cnc(Nc3ccnc(N4CCC(O)C(F)C4)n3)cc21 (racemic) [Example 21, (±)-cis-3-Fluoro-1-{4-[1-isopropyl-3-(2-oxa-6-azaspiro[3.3]hept-6-yl)-1H-pyrazolo[4,3-c]pyridin-6-ylamino]-pyrimidin-2-yl}piperidin-4-ol]"
5.4 nM,20.5 nM,487 nM,> 3000 nM,"CC(C)n1nc(N2CCNC2=O)c2cnc(Nc3ccnc(N4CCC(O)C(F)C4)n3)cc21 (racemic) [Example 22, (±)-1-(6-((2-(cis-3-Fluoro-4-hydroxypiperidin-1-yl)pyrimidin-4-yl)amino)-1-isopropyl-1H-pyrazolo[4,3-c]pyridin-3-yl)imidazolidin-2-one]"
1.1 nM,3.9 nM,23.1 nM,248 nM,"COC1CCN(c2nccc(Nc3cc4c(cn3)c(N3CC5(COC5)C3)nn4C(C)C)n2)CC1F (racemic) [Example 23, (±)-2-(cis-3-Fluoro-4-methoxypiperidin-1-yl)pyrimidin-4-yl]-[1-isopropyl-3-(2-oxa-6-azaspiro[3.3]hept-6-yl)-1H-pyrazolo[4,3-c]pyridin-6-yl]amine]"
3.6 nM,16.1 nM,223 nM,701 nM,"CC(C)n1nc(N2CC3(COC3)C2)c2cnc(Nc3ccnc(N4CC[C@](C)(O)[C@H](F)C4)n3)cc21 (racemic) [Example 64, (3RS,4SR)-3-Fluoro-1-{4-[1-isopropyl-3-(2-oxa-6-azaspiro[3,3]hept-6-yl)-1H-pyrazolo[4,3-c]pyridin-6-ylamino]pyrimidin-2-yl}-4-methylpiperidin-4-ol]"
4.1 nM,10.3 nM,1330 nM,7820 nM,"CC(C)n1nc(N2CCO[C@@H](CO)C2)c2cnc(Nc3ccnc(N4CCC(O)C(F)C4)n3)cc21 (mixture of isomers) [Example 75, cis-3-Fluoro-1-(4-(3-((R)-2-(hydroxymethyl)morpholino)-1-isopropyl-1H-pyrazolo[4,3-c]pyridin-6-ylamino)pyrimidin-2-yl)piperidin-4-ol]"
4.1 nM,9.4 nM,4370 nM,> 10000 nM,"CCC(C)n1nc(N2CC(O)(CO)C2)c2cnc(Nc3ccnc(N4CCC(C)(O)CC4)n3)cc21 (racemic) [Example 80, (±)-1-(4-(1-sec-Butyl-3-(3-hydroxy-3-(hydroxymethyl)azetidin-1-yl)-1H-pyrazolo[4,3-c]pyridin-6-ylamino)pyrimidin-2-yl)-4-methylpiperidin-4-ol]"
1.8 nM,4.3 nM,187 nM,489 nM,"CC(C)n1nc(N2CC(C)(C)NC2=O)c2cnc(Nc3ccnc(N4CCC(O)C(F)C4)n3)cc21 (racemic) [Example 88, (±)-1-(6-(2-(cis-3-Fluoro-4-hydroxypiperidin-1-yl)pyrimidin-4-ylamino)-1-isopropyl-1H-pyrazolo[4,3-c]pyridin-3-yl)-4,4-dimethylimidazolidin-2-one]"
3.2 nM,5.2 nM,233 nM,1130 nM,"CCC(C)n1nc(N2CC3(COC3)C2)c2cnc(Nc3ccnc(OCC(C)(C)S(C)(=O)=O)n3)cc21 (racemic) [Example 97, [1-(sec-Butyl)-3-(2-oxa-6-azaspiro[3.3]hept-6-yl)-1H-pyrazolo[4,3-c]pyridin-6-yl]-[2-(2-methanesulfonyl-2-methylpropoxy)pyrimidin-4-yl]amine]"
3.2 nM,5.6 nM,617 nM,1170 nM,"CCC(C)n1nc(N2CCNC2=O)c2cnc(Nc3ccnc(OCC(C)(C)S(C)(=O)=O)n3)cc21 (racemic) [Example 99, 1-{1-sec-Butyl-6-[2-(2-methanesulfonyl-2-methylpropoxy)pyrimidin-4-ylamino]-1H-pyrazolo[4,3-c]pyridin-3-yl}imidazolidin-2-one]"
2.3 nM,2.4 nM,568 nM,1830 nM,"CCC(C)n1nc(N2CCNC2=O)c2cnc(Nc3ccnc(NCC(C)(C)S(C)(=O)=O)n3)cc21 (racemic) [Example 101, 1-{1-sec-Butyl-6-[2-(2-methanesulfonyl-2-methylpropylamino)pyrimidin-4-ylamino]-1H-pyrazolo[4,3-c]pyridin-3-yl}imidazolidin-2-one]"
2.2 nM,12.4 nM,710 nM,1150 nM,"CCC(C)n1nc(N2CCNC2=O)c2cnc(Nc3ccnc(N4CCC(S(C)(=O)=O)CC4)n3)cc21 (racemic) [Example 102, 1-{1-sec-Butyl-6-[2-(4-methanesulfonylpiperidin-1-yl)pyrimidin-4-ylamino]-1H-pyrazolo[4,3-c]pyridin-3-yl}imidazolidin-2-one]"
,0.5 nM,28.2 nM,608 nM,"CC(C)n1nc(N2CCC(C(N)=O)C2)c2cnc(Nc3ccnc(-c4cnn(S(=O)(=O)C5CC5)c4)n3)cc21 (centres unmarked) [Example 60, 1-(6-(2-(1-(cyclopropylsulfonyl)-1H-pyrazol-4-yl)pyrimidin-4-ylamino)-1-isopropyl-1H-pyrazolo[4,3-c]pyridin-3-yl)pyrrolidine-3-carboxamide]"
5.8 nM,14 nM,,> 10000 nM,"CCC(C)n1nc(N2CC[C@H](O)C2=O)c2cnc(Nc3ccnc(N4CC[C@@H](O)[C@@H](F)C4)n3)cc21 (stereo partly drawn) [Example 201, (3S)-1-(1-(sec-Butyl)-6-((2-((3S,4R)-3-fluoro-4-hydroxypiperidin-1-yl)pyrimidin-4-yl)amino)-1H-pyrazolo[4,3-c]pyridin-3-yl)-3-hydroxypyrrolidin-2-one]"
